Data from patent US6011000A, “Compositions for the treatment of blood disorders” (priority 1995, dated 2000).
Where two headings read alike, the source gives them in different places.

Experiments:
[1] = system: fetal globin (cultured erythroid progenitor cells); details: cited from earlier work
[2] = system: fetal globin mRNA (human erythroleukemia cells); assay: Fetal globin mRNA in erythroleukemia cells (primer extension); format: cell-based
Description: Compounds were tested for increased expression of the human globin genes in human erythroid cells. In addition, as the cell line being tested is a tumor cell line, the assay determines if differentiation, a growth inhibitory effect on cancer cells, is induced by the compounds tested. Human erythroleukemia cells were cultured in RPMI media with 10% fetal calf serum alone or with treatment with various compounds for 4 days. Globin MRNA was quantitated by primer extension analysis. Fetal globin mRNA was compared to the amount of fetal globin mRNA produced in untreated cells during the same culture period. The quantitation was expressed as a percent of alpha globin MRNA which was constant. Results are expressed proportional to α-globin mRNA (Table 3).

anemic baboon = assay: In vivo reticulocyte proliferation, globin expression and blood counts in anemic (phlebotomized) baboons
Description: Experiments were performed to determine if administration of the chemical compositions could induce fetal globin gene expression in an in vivo model similar to humans (S. P. Perrine et al., Brit. J. Haematol. 88:555-61, 1994). Briefly, chemicals were prepared as sterile pharmaceutical solutions in pH adjusted sterile water. A variety of chemical compositions were administered sequentially to some baboons. After administration of one compound, a wash-out period with no compound administration was maintained until reticulocytes returned to base line prior to administration of the next compound. This was done, at least partly, to compare the magnitude of response which occurred within the same individual animal to different compounds.
Briefly, juvenile female baboons (2 years old) were catheterized with arterial and venous catheters and phlebotomized gradually every day to maintain a moderate anemia of 7.0 to 7.5 grams hemoglobin/dl. Fetal reticulocytes, the newly produced red blood cells containing fetal globin, were assayed using a monoclonal antibody against fetal globin (HbF) as described by G. Dover et al. (Blood 67:735-38, 1986). Briefly, blood was stained with two antibodies, one specific for reticulocytes and another against fetal globin protein. The amount of antibody bound cells was determined by FACS analysis. Globin chain synthesis was assayed as described by J. B. Clegg et al. (J. Mol. Biol. 19:91-108, 1966). Briefly, reticulocytes were radio-labeled with ^3 H-leucine which was incorporated in equal proportions into actively synthesized globin chains. After incubation in leucine-free media, cells were washed, and globin proteins were separated and purified by column chromatography. Radioactivity incorporated into each peak is compared and the ratios of gamma to gamma plus beta globin calculated. Each animal served as its own control with baseline monitoring assays performed for 4-6 weeks before any drug was administered. Phlebotomy was continued daily, so that peripheral HbF levels in the animals were not considered to be accurate over the short treatment time-frames and were not monitored. Safety monitoring was performed by frequent physical examinations, quantitation of food eaten, activity and frequent chemistry and hematology monitoring. Complete blood counts were assayed before, during and after treatment. Results presented were not adjusted to account for the daily phlebotomy.

[3] = system: fetal globin (gamma globin); assay: Fetal globin expression in erythroid progenitor cells from cord blood; format: cell-based, human; details: for Gamma/(Gamma + Beta): Exp. B, 12-13 days, untreated 25.4%, 27.5%
Description: Compositions were tested for activity in inducing fetal globin expression and protein production in erythroid progenitor cells cultured from human cord blood and analyzed as described by S. P. Perrine et al. (Blood 74: 454-60, 1989). Briefly, mononuclear cells were cultured in IMDM with 30% fetal calf serum and 2 units erythropoietin per ml to induce erythroid differentiation. Colonies were harvested on day 12-13, incubated with radio-labelled (^3 H) leucine, and further incubated in leucine-free media, still in the presence of compounds, overnight. Globin composition in the erythroid cells was analyzed by laser densitometry of electrophoretically separated globin chains stained with Coomassie blue, and by autoradiography. Treated cells were incubated for 12-13 days (Table 2, Experiments A and B) or overnight (Table 2, Experiment C) in the presence of the indicated compounds and compared to untreated control cells cultured from the same human subject.

fetal globin production = details: cited from earlier work
[4] = system: proximal promoter of the gamma globin gene (K562 cells); assay: Gamma globin promoter-neomycin transfection (61 bp proximal promoter), G418-resistant colonies; format: cell-based, human; details: 1 mM, 8 weeks in G418
Description: Gamma globin promoter-neomycin transfection experiments were performed to determine if compounds act by inducing an increase in activity from the proximal promoter of the gamma globin gene. Constructs containing 61 bp of the proximal gamma globin promoter were linked to the reporter gene for neomycin phosphotransferase (NEO) and transfected into permissive K562 cells by electroporation. After 18 hours, transfected cells were passed at 10^3 cells per well into RPMI media containing G418 (neomycin), which kills all mammalian cells unless the gene for NEO is expressed. Phenoxyacetic acid and thiophenoxyacetic acid were added to some of the cells plated into the RPMI/G418 media at concentrations of 1 mM. Cultures were incubated for 8 weeks with media changes performed as needed. Colonies which survived and grew in the presence of G418 were scored and the number of such colonies was compared to those generated when the cells were plated into G418 media without the test compounds. […] There was a greater than 6-fold (>600%) increase in proportions of colonies surviving the presence of phenoxyacetic acid (6/24 wells) and a three-fold (300%) increase in survival in the presence of thiophenoxyacetic acid (3/24 wells).

[5] = system: system A transport (K562 cells and nucleated erythroblasts from fetal liver); assay: Effects on system A amino acid transport (3H-MAIB uptake); format: cell-based, human
Description: Inhibition of nutrient uptake is undesirable for treatment of anemias. Methyl aminoisobutyric acid (MAIB) labeled with tritium (^3 H) is normally taken up by system A amino acid transport. Cold (unlabeled) compounds were added to cultures containing ^3 H-MAIB and incubated for 1 hour. Cells were harvested and the amount of ^3 H taken up by cells was quantitated by scintillation counting.

For `O=C(O)CCCc1ccccc1` [4-phenyl butyrate], which “fetal globin expressing reticulocyte proliferation” value [1] is on record?
Its value is “decrease fetal globin expressing reticulocyte proliferation”.

What about the “relative proportions of fetal globin per cell” value [1] of the same molecule?
Its value is “increase relative proportions of fetal globin per cell”.

Which results are given for `CCCC(=O)OCC(O)CO` (stereo not shown) [MB, monobutyrin]?
induction of fetal globin mRNA [2]: significantly increased the induction of fetal globin MRNA; Gamma Globin mRNA (increase) ([2]; 1.0 mM, 4 days): 26%; Gamma/Alpha ([2]; 1.0 mM, 4 days, untreated 0.46): 0.73; increase in fetal reticulocytes above basal levels (anemic baboon; 500 to 2,000 mg/kg i.v. daily, 4 days): 220%; Fetal reticulocytes (anemic baboon; 500 to 2,000 mg/kg i.v. daily, 4 days, from 12%): 27%

Which “Gamma/(Gamma + Beta)” value ([3]; 0.05 mM) does the source give for `CC(CO)C(N)=O` (stereo not shown) [MHPP, 2 methyl-3-hydroxypropionamide] here?
The value was 29.8%.

What about the “Gamma/(Gamma + Beta)” value ([3]; 1.0 mM) of the same molecule?
The value was 24.0%.

And the “expression of fetal globin” value ([3]; concentrations above 0.25 mM (FIG. 4))?
Its value is “decreased the expression of fetal globin”.

What about the fetal globin expression ([3]; concentrations below 0.25 mM) of the same molecule?
The fetal globin expression was “increased fetal globin expression”.

Which “fetal globin expressing reticulocyte proliferation” value [1] does the source give for `CC(=O)Oc1ccccc1` [Phenyl acetate] here?
Its value is “decrease fetal globin expressing reticulocyte proliferation”.

What about the “relative proportions of fetal globin per cell” value [1] of the same molecule?
Its value is “increase relative proportions of fetal globin per cell”.

For `CCCC(=O)[O-].[Na+]` [sodium butyrate], which “stimulation of fetal globin production” value (fetal globin production) is on record?
Its value is “effective in stimulating fetal globin production”.

With `O=C(O)CSc1ccccc1` [thiophenoxyacetic acid] as the molecule, how does the “increase in proportions of colonies surviving” value [4] read?
The value was “three-fold”.

What about the colonies surviving ([4]; none of 24 wells without compound) of the same molecule?
The colonies surviving was 3/24.

What about the activation at 1000 µM ([4]; Homo sapiens, K562, 1344 h, read-out: increase in proportions of colonies surviving) of the same molecule?
The activation at 1000 µM was 300%.

What does the source list for `CCCC(=O)OCC(COC(=O)CCC)OC(=O)CCC` [tributyrin]?
Gamma globin expression (anemic baboon; 500 to 750 mg/kg per day i.v., 3 days, from 0%): about 2.2 % of total non-alpha globin expression; Fetal reticulocytes (anemic baboon; 500 to 750 mg/kg per day i.v., 3 days, from 10%): 14%

For `CCC(N)C(=O)O` (stereo not drawn) [α-amino-n-butyric acid], which “stimulation of fetal globin production” value (fetal globin production) is on record?
Its value is “effective in stimulating fetal globin production”.

Which “system A (neutral) amino acid transport” value [5] does the source give for `CC(=Cc1ccccc1)C(=O)O` [α-methyl cinnamic acid] here?
Its value is “do not significantly alter system A transport of amino acids”.

For `CC(Cc1ccccc1)C(=O)O` (stereo not drawn) [α-methyl hydrocinnamic acid], which “system A (neutral) amino acid transport” value ([5]; 1 hour, 3H-MAIB (FIG. 12)) is on record?
The value was “caused no significant inhibition and actually increased uptake of nutrients into cells”.

And the “production of blood cell types” value (anemic baboon; baboons)?
The value was “stimulated production of many different cell types”.

What about the “red blood cell count” value (anemic baboon; first baboon, infusion 500-1,000 mg/kg, 5 days, from 2.28) of the same molecule?
The value was 3.53 10^6 red blood cells per microliter.

What about the “white blood cell count” value (anemic baboon; first baboon, infusion 500-1,000 mg/kg, 5 days, from 4.1) of the same molecule?
The value was 11.5.

And the “total number of reticulocytes” value (anemic baboon; first baboon, infusion 500-1,000 mg/kg, 5 days, from 5.6%)?
The value was 11%.

And the “total hemoglobin after treatment” value (anemic baboon; first baboon, infusion 500-1,000 mg/kg, 5 days, from 6.4)?
Its value is 7.9 grams/dl.

What about the “packed red blood cell volume” value (anemic baboon; first baboon, infusion 500-1,000 mg/kg, 5 days, from 19.5%) of the same molecule?
The value was 31.2 % of total blood volume.

And the platelet count (anemic baboon; first baboon, infusion 500-1,000 mg/kg, 5 days, from 26.7)?
The platelet count was 46.8 10^4 cells/μl.

What about the “rise in total hemoglobin” value (anemic baboon; first baboon, infusion 500-1,000 mg/kg, 5 days, over 3 days) of the same molecule?
The value was 1.5 grams/dl.

And the “rise in total hemoglobin” value (anemic baboon; second baboon, 500-700 mg/kg, 5 days)?
The value was 1.4 grams.

And the “Red blood cell counts” value (anemic baboon; second baboon, 500-700 mg/kg, 5 days, from 2.3×10^6)?
Its value is 2.82×10^6.

And the Total hemoglobin (anemic baboon; second baboon, 500-700 mg/kg, 5 days, from 4.6)?
Its Total hemoglobin is 6.0 g/dL.

What about the “packed red blood cell volume” value (anemic baboon; second baboon, 500-700 mg/kg, 5 days, from 14.5%) of the same molecule?
Its value is 20.2%.

What about the “White blood cell counts (maximum)” value (anemic baboon; second baboon, 500-700 mg/kg, 5 days, from 8,700) of the same molecule?
The value was 14,300.

And the “platelet counts (high)” value (anemic baboon; second baboon, 500-700 mg/kg, 5 days, from 328,000)?
The value was 486,000.

What about the “Total fetal globin synthesis” value (anemic baboon; second baboon, 500-700 mg/kg, after 5 days, from 4.0%) of the same molecule?
The value was 10.8%.

And the adverse effects (anemic baboon; third baboon, same dose, 5 days)?
Its adverse effects is “No adverse affects were observed”.

And the “Fetal globin protein synthesis” value (anemic baboon; third baboon, same dose, 5 days, from 0%)?
Its value is 6.2 % of non-alpha globin.

What about the “fetal hemoglobin producing reticulocytes” value (anemic baboon; third baboon, same dose, after 5 days (FIG. 8), from 0%) of the same molecule?
Its value is 10%.
